Reference: patent US6037351A, “Method of inhibiting hepatitis B virus” (priority 1996, dated 2000)

How the values were obtained:
[1] = tested on: HBs proteins; experiment: Western blot of all HBs proteins in virions, filaments and spheres fractions; format: cell-based, HBV; conditions: medium of NBDNJ treated cultures, FIGS. 5B and 5C
Description: Polyethylene glycol (PEG) precipitates of culture medium (FIG. 5A) or partly purified virions, HBs filaments and spheres from untreated (FIG. 5B) and NBDNJ treated (FIG. 5C) cultures were resolved by SDS-PAGE (13.5% acrylamide), transferred to immobilin paper and incubated with PreS1 and PreS2 specific monoclonal antibody.
Samples were dissolved in loading buffer, resolved by electrophoresis through 13.5% SDS polyacrylamide gels (SDS-PAGE) and transferred to PVDF (Millipore) membranes and blocked with 5% powdered milk, as in Gultekin and Heerman, Analytical Biochem. 172, 320-329 (1989). After incubation with primary antibody overnight at room temperature in 1% bovine serum albumin (BSA) in TNE and second antibody (peroxidase conjugated goat anti-mouse IgG serum) for 1 hour in TNE at room temperature, membranes were developed in peroxide-diaminobenzidine (Sigma) PBS, as described in the manufacturer's instructions.
The ELISA results were confirmed by Western blot analysis of fractions from the sucrose gradient containing either intact virus, filaments or spheres (FIGS. 5B, from untreated cultures, and 5C, from NBDNJ treated cultures). […]
Fractions distal to the virion containing fractions (near the bottom of the gradient) were resolved in lane 1 to show specificity of the antibody. […] The images shown in FIGS. 5B and 5C) were quantified by densitometry.

[2] = tested on: Human Immunodeficiency Virus (HIV); conditions: cited from earlier work
[3] = tested on: hepatitis B virus (HBV); experiment: Intracellular HBV DNA in infected HepG2 cells (PCR, densitometry); format: cell-based, HBV in human hepatoma HepG2 cells; conditions: HepG2 cells infected with HBV and post treated with NBDNJ, vs untreated
Description: FIG. 3B and FIG. 3D: DNA from the intracellular compartment of the cultures infected in FIG. 3A with HBV and treated with NBDNJ were amplified by PCR. The lanes contain amplified DNA from the following samples:
FIG. 3D: Histogram of the area under the averaged peaks of the densitometric tracing of the gel in FIG. 3B. […] Equal volumes of the indicated samples were tested for HBV envelope antigens using the enzyme-linked imminosorbent assay (ELISA) method. Samples of unfractionated medium (FIGS. 4A, 4B and 4C) or partially purified virus (FIGS. 4D, 4E and 4F) from 3-day cultures were tested for HBV SHBs ("S) (FIGS. 4A and 4D), LHBs: "PreS1" (FIGS. 4B and 4E) or MHBs "PreS2" (FIGS. 4C and 4F) epitopes. […]
Progeny virus in the medium of HepG2 cells infected with serum derived HBV was detected by precipitating medium with monoclonal antibody to the PreS2 epitopes. […]
Since the culture medium of HBV infected HepG2 cells treated with NBDNJ was similar to 2.2.15 cells, with respect to the reduced amount of virion associated DNA, it was of interest to know if there was a concomitant increase in viral DNA within the treated cells. […] Products of the reaction were resolved by agarose gel electrophoresis and the ethidium bromide stained gel (FIG. 3B) was analyzed by densitometry (FIG. 3D).

[4] = tested on: LHBs (PreS1) antigen; experiment: ELISA of LHBs (PreS1) antigen in unfractionated culture medium of 2.2.15 cells; format: cell-based, HBV
Description: FIG. 3D: Histogram of the area under the averaged peaks of the densitometric tracing of the gel in FIG. 3B. […] Equal volumes of the indicated samples were tested for HBV envelope antigens using the enzyme-linked imminosorbent assay (ELISA) method. Samples of unfractionated medium (FIGS. 4A, 4B and 4C) or partially purified virus (FIGS. 4D, 4E and 4F) from 3-day cultures were tested for HBV SHBs ("S) (FIGS. 4A and 4D), LHBs: "PreS1" (FIGS. 4B and 4E) or MHBs "PreS2" (FIGS. 4C and 4F) epitopes. Cultures were maintained in the indicated concentrations of NBDNJ, expressed in millimolar units and shown along the X axis.
Detection of HBV proteins by the Enzyme Linked Immunoabsorbant assay (ELISA).
Monoclonal antibodies used herein are well-known and are described by Heerman et al., J. Virol. […]
Bound antigen was detected by incubation with peroxidase conjugated goat anti-HBs antibody (Behring) followed by development in orthophenylenediamine (0.33 mg/ml PBS-peroxide solution). Optical densities were read in a Behring plate reader. Tests on purified virus and total medium were conducted over a series of sample dilutions to insure proper quantification.
To distinguish between these possibilities, the amount and nature of envelope antigens in the culture medium was determined by both ELISA and Western analysis. […]

SMILES: CCCCN1C[C@H](O)[C@@H](O)[C@H](O)[C@H]1CO [NBDNJ, N-butyl-1,5-dideoxy-1,5-imino-D-glucitol]
- amount of all HBs proteins in virions, filaments and spheres [1]: decrease in the amount of all HBs proteins
- formation of cytotoxic HIV in vitro (in words) [2]: suppress formation of cytotoxic Human Immunodeficiency Virus (HIV) in vitro
- accumulation of intracellular viral DNA [3]: accumulate greater amounts of viral DNA
- effect upon total amount of LHBs (PreS1) antigen in medium [4]: no significant effect
